Where “and” joins values, the source holds several entries; their conditions need not be identical. Equal entries are not always repeated.
Test system: WM3248 melanoma cells, 486 antibodies
Assay: Reverse phase protein arrays (RPPA)
Type: cell-based, Human
Excerpt: Pellets were snap frozen in liquid nitrogen and shipped to MD Anderson Cancer Center core RPPA facility for RPPA analysis (Table S5). Three biological replicates for each sample were generated.
Nomenclatures on the RPPA heatmaps: name_of_antibody.species_of_antibody.status_of_antibody. V - antibody validated; C - validation of antibody in progress; Q - antibody nonspecific; E – under evaluation; antibodies raised in M - mouse, G - goat, R - rabbit, or T - rat.

What does the source list for `CN(C)c1cccc(Nc2cc(-c3ccccc3)nc(C3CCNCC3)n2)c1` [ARN22089, N1,N1-dimethyl-N3-(6-phenyl-2-(piperidin-4-yl)pyrimidin-4-yl)benzene-1,3-diamine]?
Caspase.8.cleaved.R.C normalized signal (Norm_5 Average): 0.982; Caveolin.1.R.V normalized signal (Norm_5 Average): 0.855; Cdc6.R.V normalized signal (Norm_5 Average): 0.979; Cdc42.R.C normalized signal (Norm_5 Average): 1.009; Chk1.M.C normalized signal (Norm_5 Average): 0.909; Chk2.M.V normalized signal (Norm_5 Average): 0.853; Chk2_pT68.R.C normalized signal (Norm_5 Average): 1.060; Claudin.7.R.V normalized signal (Norm_5 Average): 0.926; Collagen.VI.R.V normalized signal (Norm_5 Average): 1.116; Complex.II.Subunit.M.V normalized signal (Norm_5 Average): 0.975; Cox2.R.C normalized signal (Norm_5 Average): 1.135; Cox.IV.R.V normalized signal (Norm_5 Average): 1.022; CtIP.R.V normalized signal (Norm_5 Average): 0.975; Cyclin.B1.R.V normalized signal (Norm_5 Average): 0.972; Cyclin.D3.M.V normalized signal (Norm_5 Average): 0.904; Cyclin.E1.R.V normalized signal (Norm_5 Average): 0.936; DAPK1_pS308.M.C normalized signal (Norm_5 Average): 1.256; DDB.1.R.V normalized signal (Norm_5 Average): 1.059; DDR1_pY513.R.C normalized signal (Norm_5 Average): 0.981; DM.K9.Histone.H3.M.V normalized signal (Norm_5 Average): 0.933; DNA.Ligase.IV.R.C normalized signal (Norm_5 Average): 1.034; DNA_POLG.R.V normalized signal (Norm_5 Average): 0.987; c.Jun_pS73.R.V normalized signal (Norm_5 Average): 0.785; c.Met_pY1234_Y1235.R.V normalized signal (Norm_5 Average): 1.005; c.Myc.R.C normalized signal (Norm_5 Average): 1.002; cdc2_pY15.R.C normalized signal (Norm_5 Average): 1.020; cdc25C.R.V normalized signal (Norm_5 Average): 0.901; C.Raf.R.C normalized signal (Norm_5 replicates): 0.928 and 0.922 and 1.015; C.Raf_pS338.R.V normalized signal (Norm_5 replicates): 1.100 and 1.059 and 1.133; CA9.R.C normalized signal (Norm_5 replicates): 0.890 and 0.944 and 0.999; CD2.M.C normalized signal (Norm_5 replicates): 0.910 and 0.933 and 1.035; CD4.R.V normalized signal (Norm_5 replicates): 1.047 and 1.004 and 1.101; CD5.M.C normalized signal (Norm_5 replicates): 0.985 and 1.051; CD20.R.C normalized signal (Norm_5 replicates): 0.992 and 1.004 and 0.765; CD26.R.V normalized signal (Norm_5 replicates): 0.918 and 1.107 and 0.927; CD29.M.V normalized signal (Norm_5 replicates): 0.891 and 0.950 and 1.049; CD31.M.V normalized signal (Norm_5 replicates): 0.904 and 0.900 and 1.048; CD38.R.C normalized signal (Norm_5 replicates): 0.928; CD44.R.C normalized signal (Norm_5 replicates): 0.917 and 1.058 and 0.855; CD45.M.V normalized signal (Norm_5 replicates): 0.930 and 1.021; CD49b.M.V normalized signal (Norm_5 replicates): 0.968 (2×) and 1.000; CD68.M.C normalized signal (Norm_5 replicates): 0.960 and 0.996 and 0.977; CD74.M.V normalized signal (Norm_5 replicates): 0.856 and 0.898 and 1.027; CD134.R.V normalized signal (Norm_5 replicates): 0.925 and 0.944; CD171.M.V normalized signal (Norm_5 replicates): 0.619 and 0.917 and 0.812; CDK1_pT14.R.C normalized signal (Norm_5 replicates): 0.861 and 1.206; CDK9.R.V normalized signal (Norm_5 replicates): 0.898 and 0.959 and 1.009; CDKN2A.R.C normalized signal (Norm_5 replicates): 0.913 and 0.846 and 1.064; CDT1.R.V normalized signal (Norm_5 replicates): 0.876 and 0.937; CENP.A.R.V normalized signal (Norm_5 replicates): 0.837 and 1.027; CHD1L.R.V normalized signal (Norm_5 replicates): 0.984 and 0.980 and 1.062; CIITA.R.C normalized signal (Norm_5 replicates): 0.906 and 1.032 and 0.908; COG3.R.V normalized signal (Norm_5 replicates): 1.065 and 1.046 and 1.027; CRABP1.R.C normalized signal (Norm_5 replicates): 0.859 and 0.948; CRABP2.R.V normalized signal (Norm_5 replicates): 0.835 and 0.922; CREB_pS133.R.C normalized signal (Norm_5 replicates): 0.973 and 1.049; CSK.R.C normalized signal (Norm_5 replicates): 0.899 and 0.615; Calnexin.R.V normalized signal (Norm_5 replicates): 0.886 and 0.995 and 1.007; Caspase.3.cleaved.R.C normalized signal (Norm_5 replicates): 1.021 and 1.056; Caspase.7.cleaved..R.C normalized signal (Norm_5 replicates): 0.975 and 1.120; Caspase.8.M.Q normalized signal (Norm_5 replicates): 0.995 and 1.011; Caspase.8.cleaved.R.C normalized signal (Norm_5 replicates): 0.959 and 0.968 and 1.018; Caveolin.1.R.V normalized signal (Norm_5 replicates): 0.695 and 1.083 and 0.788; Cdc6.R.V normalized signal (Norm_5 replicates): 1.013 and 0.837; Cdc42.R.C normalized signal (Norm_5 replicates): 0.983 and 0.959; Chk1.M.C normalized signal (Norm_5 replicates): 0.847 and 0.901 and 0.979; Chk1_pS296.R.V normalized signal (Norm_5 replicates): 1.011 and 0.821 and 1.014; Chk1_pS345.R.C normalized signal (Norm_5 replicates): 1.085 and 0.937; Chk2.M.V normalized signal (Norm_5 replicates): 0.877 and 0.935 and 0.746; Chk2_pT68.R.C normalized signal (Norm_5 replicates): 1.018 and 1.050 and 1.112; Claudin.7.R.V normalized signal (Norm_5 replicates): 0.960 and 0.997 and 0.822; Collagen.VI.R.V normalized signal (Norm_5 replicates): 1.125 and 1.077 and 1.148; Complex.II.Subunit.M.V normalized signal (Norm_5 replicates): 0.952 and 1.023; Connexin.43.R.C normalized signal (Norm_5 replicates): 1.236 and 0.956; Coup.TFII.R.C normalized signal (Norm_5 replicates): 1.082 and 1.017; Cox2.R.C normalized signal (Norm_5 replicates): 1.108 and 1.155 and 1.142; Cox.IV.R.V normalized signal (Norm_5 replicates): 1.004 and 1.021; Creb.R.C normalized signal (Norm_5 replicates): 1.017; CtIP.R.V normalized signal (Norm_5 replicates): 1.022 and 0.990 and 0.914; Cyclin.B1.R.V normalized signal (Norm_5 replicates): 0.618 and 1.059 and 1.239; Cyclin.D1.R.C normalized signal (Norm_5 replicates): 0.917 and 1.018
